According to patent US7563903B2, “Acylaminothiazole derivatives, their preparation and their therapeutic use” (Sanofi-Aventis, priority 2003, dated 2009):
Values joined by “and” are separate entries in the source; they are usually repeats but may differ in a detail not shown here. Equal values may be shown once.

melting point	Compound
67.4 °C and 67.5 °C	CCC[C@H](NC(=O)[C@H](O)C(CC)CC)C(=O)Nc1ncc(-c2ccccc2COc2ccccc2)s1 (racemic) [Compound No. 42, (2R)-3-ethyl-2-hydroxy-N-{(1S)-1-[({5-[2-(phenoxymethyl)phenyl]-1,3-thiazol-2-yl}amino)carbonyl]butyl}pentanamide]
85 °C	CCC[C@H](NC(=O)C(O)CC(C)C)C(=O)Nc1ncc(-c2ccccc2COC2CCCCC2)s1 (stereo partly drawn) [Compound No. 4, N-((1S)-1-{[(5-{2-[(cyclohexyloxy)methyl]phenyl}-1,3-thiazol-2-yl)amino]carbonyl}butyl)-2-hydroxy-4-methylpentanamide]
84 °C	CCC[C@H](NC(=O)[C@@H](O)C(C)(C)C)C(=O)Nc1ncc(-c2ccccc2COc2ccccc2)s1 [Compound No. 9, (2S)-2-{[(2S)-2-hydroxy-3,3-dimethylbutanoyl]amino}-N-{5-[2-(phenoxymethyl)phenyl]-1,3-thiazol-2-yl}pentanamide]
122.5 °C	CCC[C@H](NC(=O)[C@@H](O)C(CC)CC)C(=O)Nc1ncc(-c2ccccc2COc2ccccc2)s1 [Compound No. 43, (2S)-3-ethyl-2-hydroxy-N-{(1S)-1-[({5-[2-(phenoxymethyl)phenyl]-1,3-thiazol-2-yl}amino)carbonyl]butyl}pentanamide]
112.7 °C	CCC[C@H](NC(=O)[C@@H](O)C(C)(C)C)C(=O)Nc1ncc(-c2ccccc2COc2ccncc2)s1 [Compound No. 70, (2S)-2-{[(2S)-2-hydroxy-3,3-dimethylbutanoyl]amino}-N-(5-{2-[(4-pyridinyloxy)methyl]phenyl}-1,3-thiazol-2-yl)pentanamide]
63 °C	CCC[C@H](NC(=O)[C@@H](O)C(C)(C)C)C(=O)Nc1ncc(-c2ccccc2COC(C)C)s1 [compound 11, (2S)-2-{[(2S)-2-hydroxy-3,3-dimethylbutanoyl]amino}-N-{5-[2-(isopropoxymethyl)phenyl]-1,3-thiazol-2-yl}pentanamide]
77 °C	CCC[C@H](NC(=O)CC(C)(C)C)C(=O)Nc1ncc(-c2ccccc2COC(C)C)s1 [compound 13, (2S)-2-[(3,3-dimethylbutanoyl)amino]-N-{5-[2-(isopropoxymethyl)phenyl]-1,3-thiazol-2-yl}pentanamide]
112 °C	CCC[C@H](NC(=O)C(=O)C(C)CC)C(=O)Nc1ncc(-c2ccccc2COC(C)C)s1 (stereo partly drawn) [compound 14, N-{(1S)-1-[({5-[2-(isopropoxymethyl)phenyl]-1,3-thiazol-2-yl}amino)carbonyl]butyl}-3-methyl-2-oxopentanamide]
148 °C	CCC[C@H](NC(=O)[C@@H](O)C(C)(C)C)C(=O)Nc1ncc(-c2ccccc2COCC)s1 [compound 15, (2S)—N-{5-[2-(ethoxymethyl)phenyl]-1,3-thiazol-2-yl}-2-{[(2S)-2-hydroxy-3,3-dimethylbutanoyl]amino}pentanamide]
114 °C	CCC[C@H](NC(=O)[C@@H](O)C(C)(C)C)C(=O)Nc1ncc(-c2ccccc2COc2cccc(OC(F)(F)F)c2)s1 [compound 17, (2S)-2-{[(2S)-2-hydroxy-3,3-dimethylbutanoyl]amino}-N-[5-(2-{[3-(trifluoromethoxy)phenoxy]methyl}phenyl)-1,3-thiazol-2-yl]pentanamide]
117 °C	CCC[C@H](NC(=O)[C@@H](O)C(C)(C)C)C(=O)Nc1ncc(-c2ccc(OC)cc2COc2ccccc2)s1 [compound 18, (2S)-2-{[(2S)-2-hydroxy-3,3-dimethylbutanoyl]amino}-N-{5-[4-methoxy-2-(phenoxymethyl)phenyl]-1,3-thiazol-2-yl}pentanamide]
92 °C	CCC[C@H](NC(=O)[C@@H](O)C(C)(C)C)C(=O)Nc1ncc(-c2ccccc2COc2ccccc2F)s1 [compound 19, (2S)—N-(5-{2-[(2-fluorophenoxy)methyl]phenyl}-1,3-thiazol-2-yl)-2-{[(2S)-2-hydroxy-3,3-dimethylbutanoyl]amino}pentanamide]
107 °C	CCC[C@H](NC(=O)[C@@H](O)C(C)(C)C)C(=O)Nc1ncc(-c2ccccc2COc2ccccc2CC)s1 [compound 20, (2S)—N-(5-{2-[(2-ethylphenoxy)methyl]phenyl}-1,3-thiazol-2-yl)-2-{[(2S)-2-hydroxy-3,3-dimethylbutanoyl]amino}pentanamide]
99 °C	CCC[C@H](NC(=O)[C@@H](O)C(C)(C)C)C(=O)Nc1ncc(-c2ccccc2COc2cccc(OC)c2OC)s1 [compound 23, (2S)—N-(5-{2-[(2,3-dimethoxyphenoxy)methyl]-phenyl}-1,3-thiazol-2-yl)-2-{[(2S)-2-hydroxy-3,3-dimethylbutanoyl]amino}pentanamide]
66 °C	CCC[C@H](NC(=O)[C@@H](O)C(C)(C)C)C(=O)Nc1ncc(-c2ccccc2COc2ccccc2OC(F)(F)F)s1 [compound 24, (2S)-2-{[(2S)-2-hydroxy-3,3-dimethylbutanoyl]amino}-N-[5-(2-{[2-(trifluoromethoxy)phenoxy]methyl}phenyl)-1,3-thiazol-2-yl]pentanamide]
66.5 °C	CCC[C@H](NC(=O)[C@@H](O)C(C)(C)C)C(=O)Nc1ncc(-c2ccccc2COc2cc(OC)cc(OC)c2)s1 [compound 25, (2S)—N-(5-{2-[(3,5-dimethoxyphenoxy)methyl]-phenyl}-1,3-thiazol-2-yl)-2-{[(2S)-2-hydroxy-3,3-dimethylbutanoyl]amino}pentanamide]
88 °C	CCC[C@H](NC(=O)[C@@H](O)C(C)(C)C)C(=O)Nc1ncc(-c2ccccc2COc2cccc(C)c2C)s1 [compound 26, (2S)—N-(5-{2-[(2,3-dimethylphenoxy)methyl]phenyl}-1,3-thiazol-2-yl)-2-{[(2S)-2-hydroxy-3,3-dimethylbutanoyl]amino}pentanamide]
89 °C	CCC[C@H](NC(=O)[C@@H](O)C(C)(C)C)C(=O)Nc1ncc(-c2ccccc2COc2ccc(C)c(C)c2)s1 [compound 27, (2S)—N-(5-{2-[(3,4-dimethylphenoxy)methyl]phenyl}-1,3-thiazol-2-yl)-2-{[(2S)-2-hydroxy-3,3-dimethylbutanoyl]amino}pentanamide]
87 °C	CCC[C@H](NC(=O)[C@@H](O)C(C)(C)C)C(=O)Nc1ncc(-c2ccccc2COc2c(C)cccc2C)s1 [compound 28, (2S)—N-(5-{2-[(2,6-dimethylphenoxy)methyl]phenyl}-1,3-thiazol-2-yl)-2-{[(2S)-2-hydroxy-3,3-dimethylbutanoyl]amino}pentanamide]
169 °C	CCC[C@H](NC(=O)[C@@H](O)C(C)(C)C)C(=O)Nc1ncc(-c2ccccc2COc2cccc(Cl)c2)s1 [compound 29, (2S)—N-(5-{2-[(3-chlorophenoxy)methyl]phenyl}-1,3-thiazol-2-yl)-2-{[(2S)-2-hydroxy-3,3-dimethylbutanoyl]amino}pentanamide]
81.5 °C	CCC[C@H](NC(=O)[C@@H](O)C(C)(C)C)C(=O)Nc1ncc(-c2ccccc2COc2ccc(OC)c(OC)c2)s1 [compound 30, (2S)—N-(5-{2-[(3,4-dimethoxyphenoxy)methyl]phenyl}-1,3-thiazol-2-yl)-2-{[(2S)-2-hydroxy-3,3-dimethylbutanoyl]amino}pentanamide]
69.5 °C	CCC[C@H](NC(=O)[C@@H](O)C(C)(C)C)C(=O)Nc1ncc(-c2ccccc2COc2c(OC)cccc2OC)s1 [compound 31, (2S)—N-(5-{2-[(2,6-dimethoxyphenoxy)methyl]phenyl}-1,3-thiazol-2-yl)-2-{[(2S)-2-hydroxy-3,3-dimethylbutanoyl]amino}pentanamide]
86 °C	CCC[C@H](NC(=O)[C@@H](O)C(C)(C)C)C(=O)Nc1ncc(-c2ccccc2COc2ccc(C)cc2C)s1 [compound 32, (2S)—N-(5-{2-[(2,4-dimethylphenoxy)methyl]phenyl}-1,3-thiazol-2-yl)-2-{[(2S)-2-hydroxy-3,3-dimethylbutanoyl]amino}pentanamide]
87 °C	CCC[C@H](NC(=O)[C@@H](O)C(C)(C)C)C(=O)Nc1ncc(-c2ccccc2COc2cc(C)ccc2C)s1 [compound 33, (2S)—N-(5-{2-[(2,5-dimethylphenoxy)methyl]phenyl}-1,3-thiazol-2-yl)-2{[(2S)-2-hydroxy-3,3-dimethylbutanoyl]amino}pentanamide]
99 °C	CCC[C@H](NC(=O)[C@@H](O)C(C)(C)C)C(=O)Nc1nc(C)c(-c2ccccc2COc2ccccc2)s1 [compound 34, (2S)-2-{[(2S)-2-hydroxy-3,3-dimethylbutanoyl]amino}-N-{4-methyl-5-[2-(phenoxymethyl)phenyl]-1,3-thiazol-2-yl}pentanamide]
78.5 °C	CCC[C@@H](NC(=O)[C@@H](O)C(C)(C)C)C(=O)Nc1ncc(-c2ccccc2COc2ccccc2)s1 [compound 35, (2R)-2-{[(2S)-2-hydroxy-3,3-dimethylbutanoyl]amino}-N-{5-[2-(phenoxymethyl)phenyl]-1,3-thiazol-2-yl}pentanamide]
96.5 °C	CCC[C@H](NC(=O)[C@@H](O)C(C)(C)C)C(=O)Nc1ncc(-c2ccccc2COc2ccccc2C)s1 [compound 36, (2S)-2-{[(2S)-2-hydroxy-3,3-dimethylbutanoyl]amino}-N-(5-{2-[(2-methylphenoxy)methyl]phenyl}-1,3-thiazol-2-yl}pentanamide]
141 °C	CCC[C@H](NC(=O)[C@@H](O)C(C)C)C(=O)Nc1ncc(-c2ccccc2COc2ccccc2)s1 [compound 37, (2S)-2-{[(2S)-2-hydroxy-3-methylbutanoyl]amino}-N-{5-[2-(phenoxymethyl)phenyl]-1,3-thiazol-2-yl}pentanamide]
85 °C	CCC[C@H](NC(=O)C(O)C(C)(C)C)C(=O)Nc1ncc(-c2ccccc2COc2ccccc2OC)s1 (stereo partly drawn) [compound 38, (2S)-2-[(2-hydroxy-3,3-dimethylbutanoyl)amino]-N-(5-{2-[(2-methoxyphenoxy)methyl]phenyl}-1,3-thiazol-2-yl}pentanamide]
88 °C	CCC[C@H](NC(=O)C(O)C(C)(C)C)C(=O)Nc1ncc(-c2ccccc2COc2ccccc2OCC)s1 (stereo partly drawn) [compound 39, (2S)—N-(5-{2-[(2-ethoxyphenoxy)methyl]phenyl}-1,3-thiazol-2-yl)-2-[(2-hydroxy-3,3-dimethylbutanoyl)amino]pentanamide]
